{"source": "DBAASP", "assay_in_all_cases": "≥ marks a high value that may be exact or a test limit, other limits are often not marked, values filed in µg/mL are converted to µM", "key": {"[1]": {"system": "Staphylococcus epidermidis ATCC 12228"}, "[2]": {"system": "Escherichia coli ATCC 25922"}, "[3]": {"system": "Klebsiella pneumoniae ATCC 13883"}, "[4]": {"system": "Enterococcus faecalis ATCC 29212"}, "[5]": {"system": "Staphylococcus aureus ATCC 25923"}, "[6]": {"system": "Enterococcus casseliflavus ATCC 700327"}, "Klebsiella pneumoniae": {"system": "Klebsiella pneumoniae"}, "[7]": {"system": "Pseudomonas aeruginosa ATCC 27853"}, "Bacillus subtilis": {"system": "Bacillus subtilis"}, "[8]": {"system": "Staphylococcus aureus K147"}, "[9]": {"system": "Staphylococcus aureus SAP 0017"}, "[10]": {"system": "Salmonella typhimurium C610"}, "[11]": {"system": "Pseudomonas aeruginosa H103"}, "[12]": {"system": "Staphylococcus epidermidis"}, "Escherichia coli O111:B4": {"system": "Escherichia coli O111:B4"}, "Enterococcus faecalis": {"system": "Enterococcus faecalis"}, "[13]": {"system": "Candida viswanathii NBRC 10321"}, "[14]": {"system": "Aspergillus oryzae NBRC 100959"}, "[15]": {"system": "Micrococcus luteus NBRC 3333"}, "[16]": {"system": "Staphylococcus epidermidis NBRC 12993"}, "[17]": {"system": "Escherichia coli NBRC 3972"}, "[18]": {"system": "Streptococcus pneumoniae ATCC 49619"}, "Corynebacterium xerosis": {"system": "Corynebacterium xerosis"}, "[19]": {"system": "Salmonella enterica subsp. enterica serovar Typhimurium ATCC 14028s"}, "Listeria monocytogenes": {"system": "Listeria monocytogenes"}, "Streptococcus mitis": {"system": "Streptococcus mitis"}, "[20]": {"system": "Staphylococcus epidermidis C621"}, "[21]": {"system": "Pseudomonas aeruginosa K799"}, "Escherichia coli UB1005": {"system": "Escherichia coli UB1005"}, "[22]": {"system": "Streptococcus pyogenes ATCC 19615"}}, "data": [{"compound": "CC[C@H](C)[C@H](NC(=O)[C@@H](N)Cc1ccccc1)C(=O)NCC(=O)N[C@H](C(=O)N[C@@H](CC(C)C)C(=O)N[C@H](C(=O)N1CCC[C@H]1C(=O)N[C@@H](CC(C)C)C(=O)N[C@@H](C)C(=O)N[C@@H](CC(C)C)C(=O)NCC(=O)N[C@@H](C)C(=O)N[C@@H](CC(C)C)C(=O)N[C@H](C(=O)N[C@@H](CCCCN)C(=O)N[C@@H](CC(C)C)C(=O)N[C@@H](Cc1ccccc1)C(=O)N[C@@H](CCCCN)C(N)=O)[C@@H](C)O)[C@@H](C)CC)[C@@H](C)O", "note": "[FIGTLIPLALGALTKLFK]", "values": [{"measurement": "MIC", "setting": "[1]", "result": 2, "unit": "µM"}, {"measurement": "MIC", "setting": "[2]", "result": 16, "unit": "µM"}, {"measurement": "MIC", "setting": "[3]", "result": 4, "unit": "µM"}, {"measurement": "MIC", "setting": "[4]", "result": 8, "unit": "µM"}, {"measurement": "MIC", "setting": "[5]", "result": 4, "unit": "µM"}, {"measurement": "MIC", "setting": "[6]", "result": 16, "unit": "µM"}]}, {"compound": "CC[C@H](C)[C@H](NC(=O)[C@H](C)NC(=O)CNC(=O)[C@H](CC(C)C)NC(=O)[C@@H](N)Cc1ccccc1)C(=O)N[C@@H](CC(C)C)C(=O)N[C@@H](CCCCN)C(=O)N[C@H](C(=O)NCC(=O)N[C@@H](Cc1cnc[nH]1)C(=O)N[C@@H](C)C(=O)N[C@@H](CC(C)C)C(=O)N[C@@H](C)C(=O)N[C@@H](CCCCN)C(=O)N[C@H](C(=O)N[C@H](C(=O)N[C@@H](CC(C)C)C(=O)N1CCC[C@H]1C(=O)N[C@@H](CCSC)C(=O)N[C@H](C(=O)N[C@H](C(=O)N[C@@H](CC(N)=O)C(=O)N[C@@H](C)C(=O)N[C@@H](Cc1ccccc1)C(=O)N[C@@H](CCCCN)C(=O)N1CCC[C@H]1C(=O)N[C@@H](CCCCN)C(=O)N[C@@H](CCC(N)=O)C(=O)O)[C@@H](C)O)C(C)C)C(C)C)[C@@H](C)O)[C@@H](C)CC", "note": "[FLGAILKIGHALAKTVLPMVTNAFKPKQ]", "values": [{"measurement": "MIC", "setting": "Klebsiella pneumoniae", "result": 16, "unit": "µM"}, {"measurement": "MIC", "setting": "[1]", "result": 4, "unit": "µM"}, {"measurement": "MIC", "setting": "[2]", "result": 8, "unit": "µM"}, {"measurement": "MIC", "setting": "[7]", "result": 32, "unit": "µM"}, {"measurement": "MIC", "setting": "[3]", "result": 8, "unit": "µM"}, {"measurement": "MIC", "setting": "[4]", "result": 8, "unit": "µM"}, {"measurement": "MIC", "setting": "[5]", "result": 8, "unit": "µM"}, {"measurement": "MIC", "setting": "[6]", "result": 4, "unit": "µM"}]}, {"compound": "CC[C@H](C)[C@H](NC(=O)[C@H](CC(C)C)NC(=O)[C@H](C)NC(=O)[C@@H]1CCCN1C(=O)[C@H](CC(C)C)NC(=O)CNC(=O)[C@@H](NC(=O)[C@@H](NC(=O)[C@H](CC(C)C)NC(=O)[C@@H](NC(=O)[C@@H](NC(=O)[C@H](CC(C)C)NC(=O)[C@@H](NC(=O)[C@H](C)NC(=O)CNC(=O)[C@@H](NC(=O)CNC(=O)[C@H](CCCCN)NC(=O)[C@H](CCCCN)NC(=O)[C@H](CCCCN)NC(=O)[C@H](Cc1ccccc1)NC(=O)[C@H](CC(C)C)NC(=O)[C@H](CCCCN)NC(=O)[C@H](Cc1c[nH]c2ccccc12)NC(=O)[C@@H](N)CCCCN)[C@@H](C)O)C(C)C)[C@@H](C)O)C(C)C)[C@@H](C)O)[C@@H](C)O)C(=O)N[C@@H](CO)C(=O)O", "note": "[KWKLFKKKGTGAVLTVLTTGLPALIS]", "values": [{"measurement": "MIC", "setting": "Bacillus subtilis", "result": 5.77, "unit": "µM"}, {"measurement": "MIC", "setting": "[8]", "result": 11.5, "unit": "µM"}, {"measurement": "MIC", "setting": "[9]", "result": 11.5, "unit": "µM"}, {"measurement": "MIC", "setting": "[10]", "result": 2.89, "unit": "µM"}, {"measurement": "MIC", "setting": "[11]", "result": 5.77, "unit": "µM"}, {"measurement": "MIC", "setting": "[12]", "result": 5.77, "unit": "µM"}, {"measurement": "MIC", "setting": "Escherichia coli O111:B4", "result": 2.89, "unit": "µM"}, {"measurement": "MIC", "setting": "Enterococcus faecalis", "result": "≥ 46.2", "unit": "µM"}]}, {"compound": "CC[C@H](C)[C@H](NC(=O)[C@H](CC(C)C)NC(=O)[C@H](C)NC(=O)[C@@H]1CCCN1C(=O)[C@H](CC(C)C)NC(=O)[C@H](C)NC(=O)[C@@H](NC(=O)[C@@H](NC(=O)[C@@H](NC(=O)[C@@H](NC(=O)[C@H](CCCCN)NC(=O)[C@H](CCCCN)NC(=O)[C@H](CC(C)C)NC(=O)[C@@H](NC(=O)[C@H](CCCCN)NC(=O)[C@@H](NC(=O)[C@H](CC(C)C)NC(=O)[C@H](CC(N)=O)NC(=O)[C@H](CCCCN)NC(=O)[C@@H](NC(=O)[C@H](Cc1ccccc1)NC(=O)[C@H](CO)NC(=O)[C@H](CCCCN)NC(=O)[C@H](Cc1c[nH]c2ccccc12)NC(=O)[C@@H](N)CCCCN)[C@@H](C)CC)[C@@H](C)O)C(C)C)C(C)C)C(C)C)[C@@H](C)O)[C@@H](C)O)C(=O)N[C@@H](CO)C(=O)O", "note": "[KWKSFIKNLTKVLKKVVTTALPALIS]", "values": [{"measurement": "MIC", "setting": "Bacillus subtilis", "result": 2.73, "unit": "µM"}, {"measurement": "MIC", "setting": "[8]", "result": 5.47, "unit": "µM"}, {"measurement": "MIC", "setting": "[9]", "result": 2.73, "unit": "µM"}, {"measurement": "MIC", "setting": "[10]", "result": 2.73, "unit": "µM"}, {"measurement": "MIC", "setting": "[11]", "result": 5.47, "unit": "µM"}, {"measurement": "MIC", "setting": "[12]", "result": 5.47, "unit": "µM"}, {"measurement": "MIC", "setting": "Escherichia coli O111:B4", "result": 2.73, "unit": "µM"}, {"measurement": "MIC", "setting": "Enterococcus faecalis", "result": 21.9, "unit": "µM"}]}, {"compound": "CC[C@H](C)[C@H](NC(=O)[C@H](CCCCN)NC(=O)[C@@H](N)CCCN=C(N)N)C(=O)N[C@@H](CCCCN)C(=O)N[C@@H](CCCN=C(N)N)C(=O)N[C@@H](Cc1ccc(O)cc1)C(=O)N[C@@H](CC(C)C)C(=O)N[C@@H](CCCN=C(N)N)C(=O)N[C@@H](CCCN=C(N)N)C(=O)N[C@@H](CCSC)C(=O)N[C@H](C(=O)N[C@H](C(=O)N[C@@H](Cc1c[nH]c2ccccc12)C(=O)O)[C@@H](C)CC)[C@@H](C)CC", "note": "[RKIKRYLRRMIIW]", "values": [{"measurement": "MIC", "setting": "[13]", "result": 27.3, "unit": "µM"}, {"measurement": "MIC", "setting": "[14]", "result": 13.6, "unit": "µM"}, {"measurement": "MIC", "setting": "[15]", "result": 13.6, "unit": "µM"}, {"measurement": "MIC", "setting": "[16]", "result": 13.6, "unit": "µM"}, {"measurement": "MIC", "setting": "[17]", "result": "≥ 218", "unit": "µM"}]}, {"compound": "CC[C@H](C)[C@H](NC(=O)[C@H](CCCN=C(N)N)NC(=O)[C@H](CS)NC(=O)[C@H](CC(C)C)NC(=O)[C@@H](N)CCCN=C(N)N)C(=O)N[C@H](C(=O)N1CCC[C@H]1C(=O)N[C@H](C(=O)N[C@H](C(=O)N[C@@H](CCCN=C(N)N)C(=O)N[C@H](C(=O)N[C@@H](CS)C(=O)N[C@@H](CCCN=C(N)N)C(=O)O)C(C)C)[C@@H](C)CC)C(C)C)C(C)C", "note": "[RLCRIVPVIRVCR]", "values": [{"measurement": "MIC", "setting": "[18]", "result": "≥ 40.4", "unit": "µM"}, {"measurement": "MIC", "setting": "Corynebacterium xerosis", "result": 1.26, "unit": "µM"}, {"measurement": "MIC", "setting": "[19]", "result": "≥ 40.4", "unit": "µM"}, {"measurement": "MIC", "setting": "Listeria monocytogenes", "result": 2.53, "unit": "µM"}, {"measurement": "MIC", "setting": "Streptococcus mitis", "result": 1.26, "unit": "µM"}, {"measurement": "MIC", "setting": "[20]", "result": 10.1, "unit": "µM"}, {"measurement": "MIC", "setting": "[21]", "result": 20.2, "unit": "µM"}, {"measurement": "MIC", "setting": "[4]", "result": 20.2, "unit": "µM"}, {"measurement": "MIC", "setting": "Escherichia coli UB1005", "result": 10.1, "unit": "µM"}, {"measurement": "MIC", "setting": "[5]", "result": "> 40.4", "unit": "µM"}, {"measurement": "MIC", "setting": "[22]", "result": 20.2, "unit": "µM"}]}, {"compound": "CC[C@H](C)[C@H](NC(=O)[C@H](CCCN=C(N)N)NC(=O)[C@H](CO)NC(=O)[C@H](CC(C)C)NC(=O)[C@@H](N)CCCN=C(N)N)C(=O)N[C@H](C(=O)N[C@H](C(=O)N[C@H](C(=O)N[C@@H](CCCN=C(N)N)C(=O)N[C@H](C(=O)N[C@@H](CS)C(=O)N[C@@H](CCCN=C(N)N)C(N)=O)C(C)C)[C@@H](C)CC)C(C)C)C(C)C", "note": "[RLSRIVVIRVCR]", "values": [{"measurement": "MIC", "setting": "[18]", "result": 5.44, "unit": "µM"}, {"measurement": "MIC", "setting": "Corynebacterium xerosis", "result": 0.34, "unit": "µM"}, {"measurement": "MIC", "setting": "[19]", "result": "≥ 43.5", "unit": "µM"}, {"measurement": "MIC", "setting": "Listeria monocytogenes", "result": 0.34, "unit": "µM"}, {"measurement": "MIC", "setting": "Streptococcus mitis", "result": 0.34, "unit": "µM"}, {"measurement": "MIC", "setting": "[20]", "result": 1.36, "unit": "µM"}, {"measurement": "MIC", "setting": "[21]", "result": 10.9, "unit": "µM"}, {"measurement": "MIC", "setting": "[4]", "result": 10.9, "unit": "µM"}, {"measurement": "MIC", "setting": "Escherichia coli UB1005", "result": 2.72, "unit": "µM"}, {"measurement": "MIC", "setting": "[5]", "result": 10.9, "unit": "µM"}, {"measurement": "MIC", "setting": "[22]", "result": 5.44, "unit": "µM"}]}]}
